Experimental findings from ChEMBL document CHEMBL1124940, “N-[(arylmethoxy)phenyl] carboxylic acids, hydroxamic acids, tetrazoles, and sulfonyl carboxamides. Potent orally active leukotriene D4 antagonists of novel structure” (J Med Chem, 1990) are described below.

The inhibition in vivo is the drop in the measured response relative to a control, in per cent.

Molecules are shown by their SMILES.

Assay type in all cases: functional
For one test, the system named is Rattus norvegicus. The test is described as follows: Antiinflammatory effect was studied in a rat carrageenan paw edema (CE) assay at 50 mg/kg.
The subject of test [1] is Cavia porcellus. The test is described as follows: Tested for the inhibition of LTD4-induced broncho constriction in Guinea pig, compound injected intragastrically at a dose of 25 mg/kg. The note with it: po, route intragastric.
Test [2] deals with Cavia porcellus. The experiment in a line: Tested for the inhibition of LTD4-induced broncho constriction in Guinea pig, injected intraduodenally at a dose of 25 mg/kg. The note with it: route intraduodenal.
The subject of test [3] is Cavia porcellus. The experiment in a line: Inhibition of LTD4-induced broncho constriction in Guinea pig after intragastrical administration of a dose of 25 mg/kg. The note with it: po, route intragastric.
In test [4] the test system is Cavia porcellus. The test is described as follows: Tested for the inhibition of LTD4-induced broncho constriction in Guinea pig, injected intraduodenally at a dose of 5 mg/kg. The note with it: route intraduodenal.
The test system of test [5] is Cavia porcellus. The test is described as follows: Inhibition of LTD4-induced broncho constriction in Guinea pig after intragastrical administration of a dose of 0.3 mg/kg. The note with it: po, route intragastric.
Test [6] relates to Cavia porcellus. The experiment in a line: Inhibition of LTD4-induced broncho constriction in Guinea pig after intragastrical administration of a dose of 1 mg/kg. The note with it: po, route intragastric.
The subject of test [7] is Cavia porcellus. The test is described as follows: Inhibition of LTD4-induced broncho constriction in Guinea pig after intragastrical administration of a dose of 3 mg/kg. The note with it: po, route intragastric.
Test [8] relates to Cavia porcellus. The experiment in a line: Inhibition of LTD4-induced broncho constriction in Guinea pig, compound injected intraduodenally at a dose of 25 mg/kg. The note with it: route intraduodenal.

In the test with Rattus norvegicus, `CC(C)Cc1ccc(C(C)C(=O)O)cc1` (configuration not stated) [IBUPROFEN] gave an inhibition in vivo at 50 mg/kg of 63%.

In the test on Cavia porcellus [1], `O=C(O)Cc1cccc(OCc2ccc3ccccc3n2)c1` registered an inhibition in vivo at 25 mg/kg of under 99%.

`c1cc(Cc2nnn[nH]2)cc(OCc2ncc3ccccc3n2)c1`: the inhibition in vivo at 25 mg/kg with Cavia porcellus [2] is under 77%.

Molecule `c1ccc(-c2nn[nH]n2)c(OCc2ccc3ccccc3n2)c1` gave an inhibition in vivo at 25 mg/kg in the test with Cavia porcellus [2] of under 31%.

Regarding `O=C(O)CCc1cccc(OCc2ccc3ccccc3n2)c1`, in the test on Cavia porcellus [3], the inhibition in vivo at 25 mg/kg is under 75%.

For `c1ccc2nc(COc3ccc(-c4nn[nH]n4)cc3)ccc2c1`, in the test with Cavia porcellus [4], the inhibition in vivo at 5 mg/kg is under 28%.

For `CONC(=O)Cc1cccc(OCc2nc3ccccc3n2C)c1`, the inhibition in vivo at 25 mg/kg in the test on Cavia porcellus [3] is under 58%.

With `Cc1ccc(S(=O)(=O)NC(=O)Cc2cccc(OCc3ccc4ccccc4n3)c2)cc1`, the inhibition in vivo at 25 mg/kg with Cavia porcellus [3] was under 16%; with Cavia porcellus [2], under 75%.

As to `O=C(NS(=O)(=O)c1ccccc1)c1cccc(OCc2ccc3ccccc3n2)c1`, the inhibition in vivo at 0.3 mg/kg in the test on Cavia porcellus [5] was under 12%. Also, the inhibition in vivo at 1 mg/kg in the test with Cavia porcellus [6] was under 82%.

Regarding `c1cc(OCc2ccc3ccccc3n2)cc(-c2nn[nH]n2)c1`, the inhibition in vivo at 25 mg/kg is under 89% with Cavia porcellus [3] and 90% with Cavia porcellus [2]. 3 mg/kg produced 13% inhibition in vivo in the test on Cavia porcellus [7].

`O=C(Cc1cccc(OCc2ccc3ccccc3n2)c1)NO` came in with an inhibition in vivo at 25 mg/kg with Cavia porcellus [2] of under 14%.

`COC(=O)Cc1cccc(OCc2nc3ccccc3s2)c1`: the values for the inhibition in vivo at 25 mg/kg in the test on Cavia porcellus [3] and with Cavia porcellus [8] were under 33% and under 65%, respectively.
